pKd: −log10 of the molar value. “Also recorded” adds a separate entry of the source.
What was measured:
PLXDC1 = PLXDC1 receptor activation assay (Gfi1b promotor luciferase reporter); assay type: cell-based; details: treatment 1 day; basal activity of PLXDC1-expressing cells = 1
Source text: (§1) FIG. 5A-B show activation of PLXDC1 and PLXDC2 by small molecules. […] All compound treatments were done for 1 day. Basal promotor activity of the PLXDC1-expressing cells is defined as 1.

[1] = tested on: tumor endothelial cells (LL/2 lung cancer tumor); assay: Lung LL2 ex vivo model of tumor angiogenesis; assay type: cell-based, mouse; details: Mus musculus, Endothelial cell, 48 h, read-out: Cell death
Method in brief: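 Mouse LL2 tumor fragments (~0.5×0.5×0.3 mm) embedded in Matrigel and grown in endothelial growth medium at 37° C until endothelial outgrowth (about 4 days) before drug treatment. About 48 h after drug addition, stained 10 min with fluorescein diacetate/propidium iodide; live (green) and dead (red) cells imaged at 2× with fixed channel settings.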

[2] = tested on: tumor / tumor blood vessels; assay: Tumor animal model, bolus IV injection at day 0, tumor growth and morphology; assay type: in vivo, mouse; details: versus control group
Source text: Treatment was done at day 0 by bolus IV injection. […] Treatment was done at day 0. […] Treatment was done at day 0.

PLXDC2 = PLXDC2 receptor activation (Gfi1b promotor luciferase reporter); assay type: cell-based; details: treatment 1 day
Source text: as §1

[3] = tested on: pathogenic blood vessels of the retina; assay: Ischemia-induced retinopathy in vivo; parameters: species or system mouse; details: subcutaneous injection during return to room air; n=10 retinas
Source text: A. Upper graph: Schematic diagram of the experimental design for ischemia-induced retinopathy. The high oxygen environment caused blood vessel loss (vaso-obliteration). In room air, loss of vessels triggered abnormal angiogenesis that generated pathogenic blood vessels on the top of the retina (marked in yellow in D). Treatment was applied during the return to room air by subcutaneous injection. […] Red signal is blood vessel marker. C. The same retinas in B with vaso-obliteration areas marked in white color. […] D. The same retinas in B with pathogenic blood vessels marked in yellow color. […] FIG. 7A includes a schematic diagram of the experimental design for ischemia-induced retinopathy. The high oxygen environment caused blood vessel loss (vaso-obliteration). In room air, loss of vessels triggered abnormal angiogenesis that generated pathogenic blood vessels on the top of the retina (marked in yellow in FIG. 7D). Treatment was applied during the return to room air by subcutaneous injection. […] The same retinas in B with vaso-obliteration areas marked in white color (FIG. 7C). […] The same retinas in B with pathogenic blood vessels marked in yellow color (FIG. 7D).

[4] = target: T1, extracellular domain of PLXDC1 (PLXDC1-ECD) (Homo sapiens, UniProt Q8IUK5); assay: Binding to PLXDC1 extracellular domain by suppression of tryptophan fluorescence
T1 construct: the extracellular domain of PLXDC1 (PLXDC1-ECD)
T1 sequence (Q8IUK5 19-426 limits assumed): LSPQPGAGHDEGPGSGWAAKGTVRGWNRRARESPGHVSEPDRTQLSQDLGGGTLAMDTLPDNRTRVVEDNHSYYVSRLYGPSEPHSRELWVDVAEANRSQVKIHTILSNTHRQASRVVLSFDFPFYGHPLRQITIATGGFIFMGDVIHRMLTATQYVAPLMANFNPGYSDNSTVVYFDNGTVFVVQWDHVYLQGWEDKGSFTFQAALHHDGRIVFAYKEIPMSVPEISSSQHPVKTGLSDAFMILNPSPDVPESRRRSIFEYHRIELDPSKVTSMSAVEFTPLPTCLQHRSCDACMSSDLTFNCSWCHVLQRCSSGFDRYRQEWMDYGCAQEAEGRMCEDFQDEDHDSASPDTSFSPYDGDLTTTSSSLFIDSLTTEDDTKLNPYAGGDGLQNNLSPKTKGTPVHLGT
Experimental: The high affinity interaction between compound 346 (Table 3) and the extracellular domain of PLXDC1 (PLXDC1-ECD). […] Tryptophan fluorescence without the compound added is defined as 1. The estimated Kd value is 50 nM.

[5] = tested on: choroidal endothelial cells; assay: Ex vivo model of choroidal angiogenesis (choroidal neovascularization); assay type: cell-based; details: 10 μM; for effect on new endothelial cells in choroidal angiogenesis: treatment starts after 7 days of angiogenesis, lasts two days, live/dead staining
Experimental: FIG. 2A-E. Comparison of compound 369 with the current anti-angiogenic drug in an ex vivo model of choroidal angiogenesis. A. A schematic diagram of the timeframe of the experiment. […] Treatment lasts for two days before cell death and survival are analyzed. B. Control experiment without any drug treatment at day 7. The white circle in the middle delineates the piece of choroid/RPE that was embedded to initiate neovascularization. C. […] Eylea was added at 10 μM. […] The compound was added at 10 μM. In B-D, green cells are live cells and red cells are dead cells. E. Quantitation of the experiments described in B-D. The amount of new endothelial cells in the untreated control is defined as 100%.

Compound | Gfi1b promotor activity in PLXDC1-expressing cells (PLXDC1) | cytotoxicity at 20 µM [1] [%] | Gfi1b promotor activity in PLXDC2-expressing cells (PLXDC2) | effect on new endothelial cells in choroidal angiogenesis [5] | further results
CCCCCCCCCCCCCCOc1ccc(S(=O)(=O)c2cnc3ccc([S+](C)[O-])cc3c2N2CCC(N3CCC(N4CCN(C)CC4)CC3)CC2)cc1 (stereo not shown) [compound 346, 4-(4-(4-methylpiperazin-1-yl)-[1,4′-bipiperidin]-1′-yl)-6-(methylsulfinyl)-3-((4-(tetradecyloxy)phenyl)sulfonyl)quinoline] | highly activated the promotor activity in PLXDC1-expressing cells | 20 | activated the promotor activity in PLXDC2-expressing cells |  | tumor growth (shrinkage) [2]: shrank the tumors significantly; healthy blood vessels in ischemia-induced retinopathy [3]: improving the amount of healthy blood vessels; pathogenic blood vessels in ischemia-induced retinopathy [3]: specifically suppressed pathogenic blood vessels in vivo without affecting healthy blood vessels; also recorded: highly suppressed pathogenic blood vessels; suppression of endogenous tryptophan fluorescence of PLXDC1-ECD ([4]; different concentrations, fluorescence without compound = 1): suppressed the endogenous tryptophan fluorescence of PLXDC1-ECD in a dose-dependent manner; pKd ([4]; estimated from dose-dependent suppression of PLXDC1-ECD tryptophan fluorescence): 7.30
O=c1[nH]cc(F)c(=O)[nH]1 [Fluorouracil, reference compound] | does not activate this promoter |  |  |  | 
Eylea: "The most commonly used drug for choroidal neovascularization, Eylea, can inhibit choroidal endothelial cell growth (as expected of an antiangiogenesis drug)" [reference compound] |  |  |  | can inhibit choroidal endothelial cell growth | 
CCCCCCCCCCCCCCOc1ccc(S(=O)(=O)c2cnc3ccc([S+](C)[O-])cc3c2N2CCC(N3CCC(N4CCN(CCO)CC4)CC3)CC2)cc1F (stereo not shown) [compound 369, 2-(4-(1′-(3-((3-fluoro-4-(tetradecyloxy)phenyl)sulfonyl)-6-(methylsulfinyl)quinolin-4-yl)-[1,4′-bipiperidin]-4-yl)piperazin-1-yl)ethanol] |  | 20 |  | can kill the new endothelial cells in choroidal angiogenesis | effect on healthy tissue (choroid and RPE) ([5]; two days treatment): Choroid and RPE are still alive after the treatment; also recorded: without affecting the healthy tissue
CCCCCCCCCCCCOc1ccc(S(=O)(=O)c2cnc3ccc([S+](C)[O-])cc3c2N2CCC(N3CCC(N4CCCCC4)CC3)CC2)cc1 (stereo not shown) [compound 342, 4-([1,4′:1′,4″-terpiperidin]-1″-yl)-3-((4-(dodecyloxy)phenyl)sulfonyl)-6-(methylsulfinyl)quinoline] | highly activated the promotor activity in PLXDC1-expressing cells | 60 | activated the promotor activity in PLXDC2-expressing cells |  | 

Source: patent US11884647B2, “Compounds and methods for targeting pathogenic blood vessels” (THE REGENTS OF THE UNIVERSITY OF CALIFORNIA, priority 2019, dated 2024)
